Laboratory results taken from PubChem BioAssay (NCI).
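Briefly, cells in 96-well plates were exposed to five compound concentrations for 48 h, and endpoints were estimated by linear interpolation. GI50 = concentration required for 50% inhibition of growth. TGI denotes the concentration required for complete inhibition of growth.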

Experiments:
Assay in all cases: DTP human tumour cell line panel, 48 h; in the data active = GI50 below about 0.43 µM; inactive = the rest
SNB-75 CNS = system: SNB-75 CNS
NCI-H226 lung = system: NCI-H226 lung
RXF 393 renal = system: RXF 393 renal
T-47D breast = system: T-47D breast
K-562 leukemia = system: K-562 leukemia
U251 CNS = system: U251 CNS
HOP-62 NSCLC = system: HOP-62 NSCLC
HT29 colon = system: HT29 colon
SW-620 colon = system: SW-620 colon
IGROV1 ovarian = system: IGROV1 ovarian

C=CCN1CC(=O)N2[C@@H](Cc3ccc(O)cc3F)C(=O)N(Cc3cccc(N4CC(N5CCN(CC)CC5)C4)n3)C[C@@H]2N1C(=O)NCc1ccccc1
16.2 µM: TGI (HT29 colon)
> 100 µM: TGI (NCI-H226 lung) | TGI (T-47D breast) | TGI (K-562 leukemia) | TGI (U251 CNS) | TGI (HOP-62 NSCLC) | TGI (SW-620 colon)
active: GI50 (SNB-75 CNS) 0.017 µM | GI50 (NCI-H226 lung) 0.0461 µM | GI50 (RXF 393 renal) 0.231 µM | GI50 (T-47D breast) 0.0339 µM | GI50 (K-562 leukemia) 0.0397 µM | GI50 (U251 CNS) 0.0319 µM | GI50 (HOP-62 NSCLC) 0.0562 µM | GI50 (HT29 colon) 0.0537 µM | GI50 (SW-620 colon) 0.107 µM
0.131 µM: TGI (SNB-75 CNS)
6.85 µM: TGI (RXF 393 renal)

COC(=O)c1cc2c(cc1Cl)SC1=NN(C)C(N(C)C)N1S2(=O)=O (stereo not drawn)
inactive: GI50 (IGROV1 ovarian) > 100 µM | GI50 (SNB-75 CNS) > 100 µM | GI50 (NCI-H226 lung) > 100 µM | GI50 (T-47D breast) > 100 µM | GI50 (K-562 leukemia) > 100 µM | GI50 (U251 CNS) > 100 µM | GI50 (HOP-62 NSCLC) > 100 µM | GI50 (HT29 colon) > 100 µM | GI50 (SW-620 colon) > 100 µM
> 100 µM: TGI (IGROV1 ovarian) | TGI (SNB-75 CNS) | TGI (NCI-H226 lung) | TGI (T-47D breast) | TGI (K-562 leukemia) | TGI (U251 CNS) | TGI (HOP-62 NSCLC) | TGI (HT29 colon) | TGI (SW-620 colon)

Cc1nc(C(=O)O)c2ccccc2n1
> 100 µM: TGI (IGROV1 ovarian) | TGI (SNB-75 CNS) | TGI (RXF 393 renal) | TGI (K-562 leukemia) | TGI (U251 CNS) | TGI (HT29 colon) | TGI (SW-620 colon)

CC(C)=CC(=O)N(C)C1C2CN3CCC(O2)C13 (stereo not drawn)
> 100 µM: TGI (IGROV1 ovarian) | TGI (SNB-75 CNS) | TGI (NCI-H226 lung) | TGI (RXF 393 renal) | TGI (K-562 leukemia) | TGI (U251 CNS) | TGI (HOP-62 NSCLC) | TGI (HT29 colon) | TGI (SW-620 colon)

N#Cc1ccc(C=NC23CC4CC(CC(C4)C2)C3)cc1
> 100 µM: TGI (IGROV1 ovarian) | TGI (NCI-H226 lung) | TGI (RXF 393 renal) | TGI (K-562 leukemia) | TGI (U251 CNS) | TGI (HOP-62 NSCLC) | TGI (HT29 colon) | TGI (SW-620 colon)

Cc1cc(C)nc(SC2=C(Nc3cc(Cl)ccc3O)C(=O)N(Cc3ccccc3)C2=O)n1
> 160 µM: TGI (K-562 leukemia) | TGI (U251 CNS) | TGI (SW-620 colon)
101 µM: TGI (HOP-62 NSCLC)
17.2 µM: TGI (RXF 393 renal)
47.7 µM: TGI (NCI-H226 lung)
63.2 µM: TGI (T-47D breast)
104 µM: TGI (SNB-75 CNS)
inactive: GI50 (IGROV1 ovarian) 25.3 µM | GI50 (SNB-75 CNS) 21.8 µM | GI50 (NCI-H226 lung) 1.78 µM | GI50 (RXF 393 renal) 4.03 µM | GI50 (T-47D breast) 15 µM | GI50 (K-562 leukemia) 5.53 µM | GI50 (U251 CNS) 38.6 µM | GI50 (HOP-62 NSCLC) 27.6 µM | GI50 (HT29 colon) 33.8 µM | GI50 (SW-620 colon) 53 µM
65 µM: TGI (HT29 colon)
88.6 µM: TGI (IGROV1 ovarian)

CCCCCCCCCCCCC(Br)C(=O)NCC(N)=O (stereo not drawn)
52.9 µM: TGI (SW-620 colon)
29.8 µM: TGI (IGROV1 ovarian)
8.79 µM: TGI (NCI-H226 lung)
11.6 µM: TGI (SNB-75 CNS)
36 µM: TGI (HT29 colon)
8.52 µM: TGI (RXF 393 renal)
29.3 µM: TGI (HOP-62 NSCLC)
24.6 µM: TGI (U251 CNS)

O=S(=O)(/C=C/C(=C/c1ccccc1)S(=O)(=O)c1ccccc1)c1ccccc1
3.43 µM: TGI (SNB-75 CNS)
3.27 µM: TGI (U251 CNS)
3.5 µM: TGI (HOP-62 NSCLC)
3.19 µM: TGI (RXF 393 renal)
9.19 µM: TGI (K-562 leukemia)
3.28 µM: TGI (HT29 colon)
25 µM: TGI (IGROV1 ovarian)

CCc1cccc(C)c1NC(=O)c1sc2nc3c(cc2c1N)C(=O)CCC3
active: GI50 (K-562 leukemia) 0.422 µM | GI50 (HT29 colon) 0.411 µM | GI50 (SW-620 colon) 0.4 µM
2.3 µM: TGI (HT29 colon)
22.4 µM: TGI (K-562 leukemia)
> 100 µM: TGI (IGROV1 ovarian) | TGI (SNB-75 CNS) | TGI (NCI-H226 lung) | TGI (U251 CNS) | TGI (HOP-62 NSCLC) | TGI (SW-620 colon)
inactive: GI50 (IGROV1 ovarian) 4.75 µM | GI50 (SNB-75 CNS) 0.527 µM | GI50 (NCI-H226 lung) 13 µM | GI50 (T-47D breast) 0.665 µM | GI50 (U251 CNS) 0.659 µM | GI50 (HOP-62 NSCLC) 10.7 µM
> 78.5 µM: TGI (T-47D breast)

O=C(O)c1cccc(C(=O)O)c1S(=O)Cc1ccccc1 (stereo not drawn)
> 100 µM: TGI (IGROV1 ovarian) | TGI (SNB-75 CNS) | TGI (NCI-H226 lung) | TGI (RXF 393 renal) | TGI (T-47D breast) | TGI (K-562 leukemia) | TGI (U251 CNS) | TGI (HOP-62 NSCLC) | TGI (HT29 colon) | TGI (SW-620 colon)

COc1ccc(/C=C(\C#N)n2nnc3c(F)cccc32)cc1
0.517 µM: TGI (SNB-75 CNS)
inactive: GI50 (NCI-H226 lung) 1.98 µM | GI50 (T-47D breast) 1.05 µM | GI50 (HOP-62 NSCLC) 0.621 µM
> 83.1 µM: TGI (HOP-62 NSCLC)
> 36.9 µM: TGI (IGROV1 ovarian)
active: GI50 (IGROV1 ovarian) 0.388 µM | GI50 (SNB-75 CNS) 0.17 µM | GI50 (RXF 393 renal) 0.182 µM | GI50 (K-562 leukemia) 0.0645 µM | GI50 (U251 CNS) 0.41 µM | GI50 (HT29 colon) 0.286 µM | GI50 (SW-620 colon) 0.2 µM
17.7 µM: TGI (U251 CNS)
0.572 µM: TGI (RXF 393 renal)
> 100 µM: TGI (NCI-H226 lung) | TGI (T-47D breast) | TGI (K-562 leukemia) | TGI (SW-620 colon)

N#CC(C#N)c1ccc(C(=O)N2CCC[C@H]2CO)cc1
> 100 µM: TGI (IGROV1 ovarian) | TGI (SNB-75 CNS) | TGI (RXF 393 renal) | TGI (K-562 leukemia) | TGI (U251 CNS) | TGI (HOP-62 NSCLC) | TGI (HT29 colon) | TGI (SW-620 colon)

COCCNC(=O)C1C(=O)C(=O)N(CCOC)C1=O (stereo not drawn)
> 100 µM: TGI (IGROV1 ovarian) | TGI (SNB-75 CNS) | TGI (NCI-H226 lung) | TGI (RXF 393 renal) | TGI (K-562 leukemia) | TGI (U251 CNS) | TGI (HOP-62 NSCLC) | TGI (HT29 colon) | TGI (SW-620 colon)

Cc1cc(C)nc(NS(=O)(=O)c2ccc(Nc3c4ccccc4nc4c(C(=O)Nc5ccc(S(=O)(=O)N=C(N)N)cc5)cccc34)cc2)n1
> 100 µM: TGI (IGROV1 ovarian) | TGI (K-562 leukemia) | TGI (U251 CNS) | TGI (HOP-62 NSCLC) | TGI (HT29 colon) | TGI (SW-620 colon)
88.5 µM: TGI (SNB-75 CNS)
85.1 µM: TGI (RXF 393 renal)

COc1cc2c(cc1OCCCCN1CCN(C(=S)SCCC(C#N)(c3ccccc3)c3ccccc3)CC1)N=C[C@@H]1CCCN1C2=O
2.66 µM: TGI (U251 CNS)
inactive: GI50 (SNB-75 CNS) 1.64 µM | GI50 (NCI-H226 lung) 1.26 µM | GI50 (T-47D breast) 0.578 µM | GI50 (K-562 leukemia) 3.29 µM | GI50 (U251 CNS) 1.11 µM | GI50 (HOP-62 NSCLC) 0.719 µM | GI50 (HT29 colon) 1.13 µM
> 100 µM: TGI (T-47D breast) | TGI (K-562 leukemia) | TGI (HT29 colon)
3.29 µM: TGI (NCI-H226 lung)
2.4 µM: TGI (HOP-62 NSCLC)
active: GI50 (RXF 393 renal) 0.414 µM
2.01 µM: TGI (RXF 393 renal)
3.68 µM: TGI (SNB-75 CNS)

NC(=O)NNC(=O)NC12CC3CC(CC(C3)C1)C2
> 100 µM: TGI (IGROV1 ovarian) | TGI (SNB-75 CNS) | TGI (NCI-H226 lung) | TGI (RXF 393 renal) | TGI (K-562 leukemia) | TGI (U251 CNS) | TGI (HOP-62 NSCLC) | TGI (HT29 colon) | TGI (SW-620 colon)

Cc1ccc(C)c(N2C(=O)C(=O)C(c3nc4ccccc4s3)/C(=N/NC(=O)NN)C2=O)c1 (stereo not drawn)
> 100 µM: TGI (IGROV1 ovarian) | TGI (SNB-75 CNS) | TGI (NCI-H226 lung) | TGI (RXF 393 renal) | TGI (U251 CNS) | TGI (HOP-62 NSCLC) | TGI (HT29 colon) | TGI (SW-620 colon)

Cc1ccc(S(=O)(=O)N/N=C(/CC(=O)c2c(C)n([O-])c3ccccc3[n+]2=O)C(=O)Nc2ccccc2C)cc1
> 100 µM: TGI (IGROV1 ovarian) | TGI (SNB-75 CNS) | TGI (NCI-H226 lung) | TGI (RXF 393 renal) | TGI (U251 CNS) | TGI (HOP-62 NSCLC) | TGI (HT29 colon) | TGI (SW-620 colon)
